# Measured values from patent publication US12029715B2, “Precursor compounds for providing retinoids of the vitamin A5 pathway and uses thereof” (UNIVERSITY OF DEBRECEN, priority 2015, dated 2024).
# “Also recorded” adds a separate entry of the source.
# How the values were obtained:
# [1] = test system: hRARα, β and γ LBDs; experiment: ESI-MS in non-denaturing conditions, binding to RAR LBD isotypes; design: species or system human; details: 5-fold molar excess of ligand
# Procedure: (§1) cDNAs encoding hRXRα LBD (223-462), hRARα LBD (153-421), hRARBβ LBD (169-414) and hRARγ LBD (178-423) were cloned into pET28b vector to generate N-terminal Histag fusion proteins. Purification was carried out as previously described [Lippert W P et al. 2009, Osz J, et al. 2012], including a metal affinity chromatography and a gel filtration. For details of sample preparation and ESI-MS analyses see below.
# cDNAs encoding hRXRαLBD (223-462), hRARαLBD (153-421), hRARβLBD (169-414) and hRARγ LBD (178-423) were cloned into pET28b vector to generate N-terminal His-tag fusion proteins. Purification was carried out as previously described [Lippert W P et al. 2009, Osz J, et al. 2012], including a metal affinity chromatography and a gel filtration. Prior to ESI-MS analysis, samples were desalted on Zeba Spin desalting columns (Pierce) in 150 mM ammonium acetate (pH 8.0). ESI-MS measurements were performed on an electrospray time-of-flight mass spectrometer (MicrOTOF, Bruker Daltonics). Purity and homogeneity of the proteins were verified by mass spectrometry in denaturing conditions (samples were diluted at 2 pmol/μl in a 1:1 water-acetonitrile mixture (v/v) acidified with 1% formic acid). The mass measurements of the noncovalent complexes were performed in ammonium acetate (200 mM; pH 8.0). […]
# [2] = test system: differentiating monocyte-derived human dendritic cells; experiment: DNA microarray in differentiating monocyte-derived dendritic cells; type: cell-based
# Procedure: The generation and transcriptional analysis of differentiating DCs were performed as described previously [Szeles L et al. 2010]. Microarray data were deposited into the Gene Expression Omnibus database under accession no. GSE48573.
# The generation and analysis of differentiating DCs were performed as described previously [Szeles L et al. 2010] with minor modifications. Briefly, human monocytes were isolated from healthy volunteer's buffy coat, obtained with a Regional Ethical Board permit from the Regional Blood Bank and isolated by Ficoll gradient centrifugation followed by immunomagnetic cell separation, and were cultured in the presence of GM-CSF and IL-4. Differentiating DCs were stimulated 18 h after […] by various agonists for 12 h. The ligands were used in the following concentrations: 10 μM (R)-9CDHRA, 10 μM (S)-9CDHRA, 1 μM 9cisRA, 100 nM LG100268, 1 μM GW3965, 1 μM Rosiglitazone (RSG), 1 μM GW1516, 100 nM AM580. Experiments were performed in biological triplicates. Samples were processed and hybridized to Human Genome U133 Plus 2.0 Arrays. Data were analysed using to GeneSpring 12.6.1 software. In detail, normalization was performed using RMA summarization algorithm. […] Microarray data were deposited into the Gene Expression Omnibus database under accession no. GSE48573.
# [3] = target: T1, hRXRα LBD (Homo sapiens, UniProt P19793); experiment: ESI-MS in non-denaturing conditions, binding to RXR LBD; design: cDNAs encoding hRXRα LBD (223-462); His-tag (N); made in house; details: 5-fold molar excess of ligand
# T1 sequence (P19793 223-462): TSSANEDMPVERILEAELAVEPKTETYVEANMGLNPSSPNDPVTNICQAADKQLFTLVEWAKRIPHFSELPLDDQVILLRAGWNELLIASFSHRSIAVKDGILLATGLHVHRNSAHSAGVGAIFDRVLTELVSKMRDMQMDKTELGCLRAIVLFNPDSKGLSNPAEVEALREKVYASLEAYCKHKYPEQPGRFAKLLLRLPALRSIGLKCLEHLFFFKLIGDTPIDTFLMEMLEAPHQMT
# Procedure: as §1
# cDNAs encoding hRXRαLBD (223-462), hRARαLBD (153-421), hRARβLBD (169-414) and hRARγ LBD (178-423) were cloned into pET28b vector to generate N-terminal His-tag fusion proteins. Purification was carried out as previously described [Lippert W P et al. 2009, Osz J, et al. 2012], including a metal affinity chromatography and a gel filtration. Prior to ESI-MS analysis, samples were desalted on Zeba Spin desalting columns (Pierce) in 150 mM ammonium acetate (pH 8.0). ESI-MS measurements were performed on an electrospray time-of-flight mass spectrometer (MicrOTOF, Bruker Daltonics). Purity and homogeneity of the proteins were verified by mass spectrometry in denaturing conditions (samples were diluted at 2 pmol/μl in a 1:1 water-acetonitrile mixture (v/v) acidified with 1% formic acid). The mass measurements of the noncovalent complexes were performed in ammonium acetate (200 mM; pH 8.0). Samples were diluted to 8 pmol/ml in the previous buffer and continuously infused into the ESI ion source at a flow rate of […] through a Harvard syringe pump (Harvard Apparatus model 11). A careful optimization of the interface parameters was performed to obtain the best sensitivity and spectrum quality without affecting the noncovalent complexes stability. In particular, the capillary exit (CE) ranged from 60 to 150 V with a vacuum interface pressure of 2.3 mbar and was set to 80 V. For ligand-interaction analysis, ligands were added to the proteins in a 5-fold molar excess.
# [4] = test system: Rbp1−/−, Rxrγ−/− and WT mice; experiment: Forced swim test after acute treatment; type: in vivo, mouse; details: Rbp1−/− mice, acute i.p. treatment 5-6 h before the test
# Procedure: (§2) The forced swim paradigm was carried out between 1 pm and 4 pm in a 3-litre glass beaker half-filled with water at 22-23° C. (the water depth was 17 cm). All mice were tested only once in this task. To this end, each mouse was lowered gently into the water and the time of immobility was scored during a 6-minute testing period. The mouse was judged immobile when it floated in an upright position and made only small movements to keep its head above the water. After 6 min, the mouse was taken out of the water, left to dry under a red light lamp and returned to its home cage. The immobility scores of each animal were used as an index of despair behavior.
# (§3) Vehicle treatments consisted of 3% ethanol and 3% DMSO solution in sunflower oil. Treatments were administered by intraperitoneal injections at volume/weight ratio 3 ml/kg between 8-10 am and 5-6 h before the test as previously validated (Wietrzych-Schindler M, 2011).
# as §2, with “paradigm (Dalvi and Lucki, 1999)” for “paradigm”, “2-litre” for “3-litre”
# [5] = test system: Rbp1−/−, Rxrγ−/− and WT mice; experiment: Delayed non-match to place (DNMTP) working memory task in the T-maze; type: in vivo, mouse; details: ITI of 6 min
# Procedure: Behaviorally naïve groups of mice were tested in the DNMTP (delayed non-match to place) procedure in the T-maze according to a protocol previously described (Wietrzych et al., 2005), with modifications to facilitate pharmacological tests (Wietrzych-Schindler et al., 2011). Spontaneous alternation was evaluated in the Ymaze apparatus according to protocol described in detail below.
# Specifically, in the present protocol, animals were first trained for 10 consecutive days with minimal inter-trial intervals (ITI) of about 15 sec, which was necessary to attain the criterion of 90% or more of correct choices during […] consecutive days (days 9-10). After this period ITI was increased semi-randomly by blocks of 3-6 min during 5 consecutive days (days 11-15 indicated) to determine “test ITI” for each animal, which was defined as the shortest ITI at which mice perform at chance level. From day 16 mice were tested using corresponding “test ITI” delays following vehicle injection on the day 16 (to test for the effect of vehicle alone) and following 9CDHROL (40 mg/kg) injection on day 17. Three mice were excluded from testing since their latency to choose the arm during the retention phase exceeded 3 min in more than one trial/day on three consecutive days (exclusion criterion). On the day 18 mice were again injected (IP) with 9CDHROL (40 mg/kg) and 9 hours later sacrificed for chemical analyses. Mice which received vehicle injections on three consecutive days were used as vehicle-treated controls for analyses of 9CDHROL metabolism. An additional group of 3 naïve mice was also injected with 9CDHROL (40 mg/kg) to test for 9CDHROL metabolism following acute treatment.
# In this variant, animals were first trained for 9 consecutive days of with minimal inter-trial intervals (ITI) of about 15 sec, which was necessary to attain the criterion of 90% or more of correct choices during three consecutive days (days 7-9). After this period ITI was increased semi-randomly to 180, 360, 720 and for some WT mice also 1080 seconds so that each animal was tested 6 times with each interval during four consecutive days (days 10-13 indicated). From day 13 mice were tested only twice per week beginning with training session on day one (with minimal, 15 sec ITIs) and testing pharmacological treatments on the second day. Only one pharmacological treatment was tested every 7 days. To test pro-mnemonic activities of UVI2108 and (R)-9CDHRA inventors used a minimal ITI, at which mice performed at chance level (50%) and which was 6 min for the Rbp1−/− or Rxrγ−/− groups and 12 min for most WT mice with exception of two mice tested at 18 min. Four mice (two wild types and one of each knockout line), were excluded from testing since their latency to choose the arm during the retention phase exceeded 3 min in more than one trial/day on three consecutive days (exclusion criterion).
# For behavioral analysis, 9CDHROL and 9CDHBC were dissolved in ethanol, and then mixed with sunflower oil, so that the final solution contained 3% ethanol. Vehicle treatments consisted of 3% ethanol solution in sunflower oil. For memory studies treatments with 9CDHRA were administered by intraperitoneal injections at volume/weight ratio 3 ml/kg at 7 am and 7 hours before the beginning of testing. For tests with animal model of chronic social defeat, different treatments were administered by intraperitoneal injections at volume/weight ratio 3 ml/kg at 10 mg/kg for each substance between 5-6 pm every second day of stress protocol immediately after the stress session starting from day 1 of the stress protocol.
# as §3
# [6] = test system: Rbp1−/− and Rxrγ−/− mice; experiment: Y-maze spontaneous alternation; type: in vivo, mouse; details: 5-6 hours prior to testing
# Procedure: The Y-maze apparatus and the procedure were as previously described (Wietrzych et al., 2005). Briefly, each mouse was placed at the end of one arm and allowed to explore freely the apparatus for 5 min, with the experimenter out of the animal's sight. Spontaneous alternation performance (SAP) was assessed visually by scoring the pattern of entries into each arm and expressed as a percentage of total number of entries, discounting the first two visits. Total entries were scored as an index of ambulatory activity in the Y-maze, but none of tested mice had to be excluded due to low locomotor performance (score below 9 entries).
# as §3
# [7] = Mouse oral supplementation, retinoid levels in serum, brain and liver (LC-MS); type: in vivo; details: mice
# Procedure: For metabolic analyses ATROL, 9CDHROL, 9CDHBC and control solutions were prepared as described above. Single per os application of the dose of 40 mg/kg of each substance was used to treat mice in the evening and samples were collected 11 h later in the light protected conditions, weighted, frozen in liquid nitrogen and stored at −80° C. until analyses. Serum was prepared and immediately stored in brown vials at −80° C., till further analysis.
# Accordingly, for sample preparation 100 mg of the material (if samples were under 100 mg, water was added up to the used standard weight: 100 mg) or 100 μl serum was diluted with a threefold volume of isopropanol, the tissues were minced by scissors, vortexed for 10 seconds, put in a ultrasonic bath for 5 minutes, shaken for 6 minutes and centrifuged at 13000 rpm in a Heraeus BIOFUGE Fresco at +4° C. […] The dried extracts were resuspended with 30 μl of methanol—MTBE (50-50) and transferred into the autosampler and 10 μl subsequently analysed.
# Mouse brain samples were prepared according to the procedure described above. Briefly, after single per os application of the dose of 40 mg/kg of 9CDHROL (or other cited substances) in the evening mice were sacrificed after 11 hours and tissues samples including brain were dissected under light-protection conditions, weighted, frozen in liquid nitrogen and stored at −80° C. until analyses. Serum was prepared and immediately stored in brown vials at −80° C., till further analysis.
# For mouse supplementation experiments we treated n=6 mice per os with 40 mg/kg bw 9CDHROL and 11 h after the treatment the mice were killed and blood, brain and liver was taken. After centrifugation of the drawn blood, serum was obtained.
# [8] = test system: oligodendrocytes cell line 158N; experiment: Metabolic conversion in mouse oligodendrocytes cell culture (LC-MS); type: in vitro ADME
# Procedure: Normal immortalized oligodendrocytes cell line 158N was cultured as previously reported (Feutz et al., 2001). Expediently, cells were cultured in supplemented with 5% calf serum (Invitrogen, France). When cells attained 70% of confluency they were treated with 10^−2 M ethanol solution of one of the following compounds: 9CDHROL, 9CDHROL-acetate, 9CDHRA-ethyl ester. 9CDHRA and ethanol as controls, vehicle treatment. 18 h after treatment cells were collected in amber Eppendorf tubes and stored at −80° C. until analyses. Treatments and cell collection were carried out in light limited conditions to avoid photolysis of retinoids.
# (§4) In a slight variant of the method, after reaching confluency of 80% cells were treated with 9CDHROL, 9CDH-retinyl ester (acetate, 9CDHROL-ES), 9CDHRA, 9CDH-retinoyl ester, (ethyl ester, 9CDHRA-ES), ATROL, 9CDHBC, 9CBC and ATBC at a concentration of 10^−6 M or ethanol at corresponding concentration was used as control vehicle treatment. Cells were harvested 18 hours later, centrifuged, weighted, frozen in liquid nitrogen and stored at −80° C. until analyses.
# (§5) High performance liquid chromatography mass spectrometry (LC-MS) was carried out as described in Example 4.
# [9] = test system: human oligodendrocytes cell cultures; experiment: Metabolic conversion in human oligodendrocytes cell culture (HPLC-MS); type: in vitro ADME; details: 10^−6M, n=3
# Procedure: as §4, §5
# 9CDHRA levels including standard deviation in human oligodendrocytes cultures were assessed using HPLC-MS analysis after control treatment using ethanol (CTRL), as well as ATROL treatment (ATROL), 9CBC treatments (9CBC), ATBC treatments (ATBC), 9CDHBC treatment (9CDHBC), 9CDHROL treatments (9CDHROL), 9CDHROL-ester treatments (9CDHROL-ES), 9CDHRA treatments (9CDHRA) or 9CDHRA-ester treatments (9CDHRA-ES), each with 10^−6M concentration and n=3 (FIG. 14D).
# [10] = per os 40 mg/kg, 11 h after treatment
structure (smiles),measurement,setting,value
"CC1=C(/C=C/C(C)=C\C=C\[C@@H](C)CC(=O)O)C(C)(C)CCC1 [(S)-9CDHRA, (9Z,13S)-13,14-Dihydroretinoic Acid]",binding to RAR LBD isotypes in ESI-MS,[1],bind to all RAR LBD isotypes
same,overlap in transcriptional changes with 9CRA,[2],about 80%
same,"expression of genes that are direct targets of RXR permissive heterodimers (LXR-RXR, PPAR-RXR) and RAR-RXR","[2]; 9CDHRA 10 μM, 9CRA 1 μM, LG268 100 nM, GW3965 1 μM, RSG 1 μM, GW1516 1 μM, AM580 100 nM",induced the expression of genes
same,binding to RXR LBD in ESI-MS,[3],lower affinity
"CC1=C(/C=C/C(C)=C/C=C/C(C)=C/C(=O)O)C(C)(C)CCC1 [ATRA, all-trans-retinoic acid]",immobility (despair) in the forced swim test,[4],reduced significantly immobility time
same,working memory performance in DNMTP task,"[5]; Rbp1−/− mice, acute treatment, (R)-9CDHRA 1 or 2 mg/kg",reversed memory deficits
same,working memory performance in DNMTP task,[5]; Rxrγ−/− mice,remained ineffective
same,working memory in spontaneous alternation in the Y-maze,"[6]; Rbp1−/− mice, ATRA 5 mg/kg, UVI2108 1 mg/kg, MA 5 mg/kg, DHA 1 mg/kg, TTNPB 5 mg/kg",normalised; also recorded: pro-mnemonic effects
same,working memory in spontaneous alternation in the Y-maze,"[6]; Rxrγ−/− mice, same doses",not
"CC1=C(/C=C/C(C)=C/C=C/C(C)=C/CO)C(C)(C)CCC1 [ATROL, all-trans-retinol, reference compound]",ATROL levels in mouse organs after treatment,[7]; oral gavage 40 mg/kg,strongly and significantly increased ATROL levels
same,"9CDHRA levels in serum, brain and liver after treatment (conversion to 9CDHRA)",[7]; [10],significantly increased levels in brain and liver
same,"9CDHROL levels in serum, brain and liver after treatment",[7]; [10],did not increase
same,ATROL levels in cells after treatment,[8]; 10^−6M,strongly and significantly increased ATROL levels
same,9CDHROL levels in cells after treatment,"[8]; 10^−6 M, 18 hours",no or just a weak increase; also recorded: weak significant increase
same,conversion to 9CDHRA,[8]; data not shown,not converted to 9CDHRA
same,9CDHRA levels in cells after treatment (metabolism / accumulation),[9],not converted to 9CDHRA
